Reference: patent US8765741B2, “5,6-dihydro-1H-pyridin-2-one compounds” (Anadys Pharmaceuticals, Inc., priority 2007, dated 2014)

Tests used:
[1] = target: NS5B polymerase (Hepatitis C virus genotype 1b, UniProt P26663); assay: biochemical; details: NS5B polymerase inhibition; 20 nM enzyme, 75 min at 28° C.; read-out: IC50
[2] = test system: HCV replicon; assay: HCV replicon assay; assay type: cell-based; details: Hepatitis C virus; Example numbers 64 and 65 in Table 1; HCV replicon cells, 72 hours exposure; read-out: EC50 (HCV replicon inhibition)
Protocol: HCV Replicon Assay (Replicon EC50 (μM))
The cell culture component of the assay is performed essentially as described by Bartenschlager et al., Hepatology 2002, 35, 694-703, wherein exponentially growing HCV Huh-7/C24 replicon cells are seeded at 4.5×10^3 cells/well in 96 well plates and 24 hours later are treated with six point half-log concentration of compound. After 72 hours exposure the media is discarded from the compound assay plate and the cell monolayers are lysed by addition of 150 µL lysis mixture (Genospectra) with incubation at 53° C. for 45 minutes. Following incubation, each lysate is thoroughly mixed and 5 µl (NS3 probe) or 10 µL (GAPDH probe) of each lysate is then transferred to the capture plate and analyzed by bDNA assay.
Branched DNA (bDNA) Assay […]
After subsequent addition of the chemilumigenic substrate (dioxetan), each plate is read by luminometer (Wallac 1420 Multilabel HTS Counter Victor 2). The luminescence signal is proportional to the amount of mRNA present in each lysate. In addition to the samples, cell lysate only (no probe) background controls are also included on each bDNA assay plate and the average signal from these control wells is subtracted from the sample reading prior to analysis. Percent of no drug control is determined for both the NS3 and GAPDH signals for each compound also. […]

NS5B polymerase, sequence (P26663 2420-3010): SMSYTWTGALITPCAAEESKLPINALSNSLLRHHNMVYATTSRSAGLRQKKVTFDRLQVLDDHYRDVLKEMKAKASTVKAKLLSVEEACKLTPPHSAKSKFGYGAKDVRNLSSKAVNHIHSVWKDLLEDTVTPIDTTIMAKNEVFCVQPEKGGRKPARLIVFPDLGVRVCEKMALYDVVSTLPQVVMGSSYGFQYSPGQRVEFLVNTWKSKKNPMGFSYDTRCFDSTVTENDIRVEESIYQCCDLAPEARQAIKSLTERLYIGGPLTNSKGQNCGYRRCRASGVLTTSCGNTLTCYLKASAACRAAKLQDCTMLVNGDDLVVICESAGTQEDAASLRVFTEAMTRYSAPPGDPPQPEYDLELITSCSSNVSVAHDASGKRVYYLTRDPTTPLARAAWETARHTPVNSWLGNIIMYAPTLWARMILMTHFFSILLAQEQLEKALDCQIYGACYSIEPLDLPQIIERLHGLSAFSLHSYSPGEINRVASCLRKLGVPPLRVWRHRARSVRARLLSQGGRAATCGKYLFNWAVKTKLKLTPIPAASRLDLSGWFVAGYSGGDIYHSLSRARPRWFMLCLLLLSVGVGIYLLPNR

Row | Compound | melting point [°C] | IC50 [1] [nM] | EC50 [2] [nM]
1 | O=C1C(C2=NS(=O)(=O)c3cnccc3N2)=C(O)[C@@H]2[C@H]3CC[C@H](C3)[C@@H]2N1Cc1ccc(F)cc1 [Example 64, (1R,2S,7R,8S)-5-(1,1-Dioxo-1,4-dihydro-1λ^6-pyrido[4,3-e][1,2,4]thiadiazin-3-yl)-3-(4-fluoro-benzyl)-6-hydroxy-3-aza-tricyclo[6.2.1.0^2,7]undec-5-en-4-one] |  |  | 100 to 1000
2 | CC(C)CCN1C(=O)C(C2=NS(=O)(=O)c3cc(N(C)S(C)(=O)=O)ccc3N2)=C(O)[C@@H]2[C@H]3CC[C@H](C3)[C@@H]21 [Example 24, (1R,2S,7R,8S)-N-{3-[6-Hydroxy-3-(3-methyl-butyl)-4-oxo-3-aza-tricyclo[6.2.1.0^2,7]undec-5-en-5-yl]-1,1-dioxo-1,4-dihydro-1λ^6-benzo[1,2,4]thiadiazin-7-yl}-N-methyl-methanesulfonamide] |  | 100 to 1000 | 
3 | O=C1C(C2=NS(=O)(=O)c3ncccc3N2)=C(O)[C@@H]2[C@H]3CC[C@H](C3)[C@@H]2N1Cc1ccc(F)cc1 [Example 65, (1R,2S,7R,8S)-5-(1,1-Dioxo-1,4-dihydro-1λ^6-pyrido[3,2-e][1,2,4]thiadiazin-3-yl)-3-(4-fluoro-benzyl)-6-hydroxy-3-aza-tricyclo[6.2.1.0^2,7]undec-5-en-4-one] |  |  | 100 to 1000

Second part, led by results:

Row | melting point [°C] | IC50 [1] [nM] | Compound | EC50 [2] [nM]
4 | 203.8 to 205.7 | < 20 | CS(=O)(=O)Nc1ccc2c(c1)S(=O)(=O)N=C(C1=C(O)[C@@H]3C4CCC(CC4)[C@@H]3N(Cc3ccc(F)cc3)C1=O)N2 [Example 49, N-{3-[(2S,7R)-3-(4-Fluoro-benzyl)-6-hydroxy-4-oxo-3-aza-tricyclo[6.2.2.0^2,7]dodec-5-en-5-yl]-1,1-dioxo-1,4-dihydro-1λ^6-benzo[1,2,4]thiadiazin-7-yl}-methanesulfonamide] | 
5 | 203.8 to 205.7 | < 20 | CS(=O)(=O)Nc1ccc2c(c1)S(=O)(=O)N=C(C1=C(O)[C@@H]3[C@H]4CC[C@H](CC4)[C@@H]3N(Cc3ccc(F)cc3)C1=O)N2 (relative stereo) [Example 50, cis-N-{3-[3-(4-Fluoro-benzyl)-6-hydroxy-4-oxo-3-aza-tricyclo[6.2.2.0^2,7]dodec-5-en-5-yl]-1,1-dioxo-1,4-dihydro-1λ^6-benzo[1,2,4]thiadiazin-7-yl}-methanesulfonamide] | 
